From US20200276164A1, “PHARMACEUTICAL COMBINATIONS FOR THE TREATMENT OF CANCER” (The Queen's University of Belfast, priority 2017, published 2020)

Tests used:
hypoxic LNCaP cells [1] = experiment: qPCR of hypoxia-induced gene expression in LNCaP cells; assay type: cell-based, human; conditions: MDV3100 10 μM
Description: (§1) Authenticated PC3 (ATCC CRL-1435), LNCaP (ATCC CRL-1740) and 22Rv1 (ATCC CRL-2505) cells were cultured as described in Seaton et al. (Carcinogenesis 2008; 29: 1148-56). C4-2B cells were maintained in RPMI 1640 supplemented with 10% fetal calf serum (FCS). MDV3100-sensitive (LNCaP-Par) and resistant (LNCaP-EnzR) cells were obtained from Prof. Vander Griend, University of Chicago, Chicago, Ill., and were cultured as described in Kregel et al. (Oncotarget 2016; 7: 26259-74). HUVEC (ATCC CRL-1730) cells were maintained in Endothelial Cell Growth Medium (#CC-3162, Lonza, UK). For experiments involving hypoxia (0.1% 02), cells were cultured as previously reported (Maxwell et al., Oncogene 2007; 26: 7333-45). Human IL-8 monoclonal antibody (#MAB208), human VEGF mAb (#AB293NA) and isotype-matched IgG (#MAB002) were obtained from R&D Systems (UK). MDV3100 (#S1250) was obtained from Selleckchem (Germany). Cells were regularly tested to ensure they were free of mycoplasma contamination.
Nucleic acid samples were prepared and analyzed as previously described (Maxwell et al., Oncogene 2007; 26: 7333-45; Maxwell et al., Eur Urol 2013; 64: 177-88). Primer sequences were as follows: AR: Forward, 5′-[…]-3′ (SEQ ID NO: 1); Reverse, 5′-[…]-3′ (SEQ ID NO: 2); PSA/KLK3: Forward, 5′-[…]-3′ (SEQ ID NO: 3); Reverse, 5′-TTGCGCACACACGTCATT-3′ (SEQ ID NO: 4). Primer sequences for 18s, BCL2, CAIX, IL-8, and VEGF have been previously reported (Maxwell et al., Oncogene 2007; 26: 7333-45; Lekas et al., Urol Res 1997; 25: 309-14).

LNCaP-EnzR cells [2] = experiment: LNCaP-EnzR (MDV3100-resistant) cell viability assay; assay type: cell-based, human; conditions: MDV3100 10 μM, relative to DMSO control
Description: as §1
(§2) Cell viability was assessed by 3-(4,5-dimethylthiazol-2-yl)-2,5-diphenyltetrazolium bromide (MTT) assay as previously described (Maxwell et al., Oncogene 2007; 26: 7333-45).

PC3 cells [3] = experiment: Chick embryo experimental metastasis model (CAM assay), PC3 colonization; assay type: in vivo; conditions: over five days; 0.1 mL of 20 μM solution i.v. per embryo on days 1 and 2
Description: Experimental metastasis assays were performed in chick embryos as described (Deryugina et al., Histochem Cell Biol 2008; 130: 1119-30). On day 12 of incubation, PC3 cells were injected directly into the blood circulation through an allantoic vein (1×10^5 cells in 0.1 mL serum-free medium per embryo). MDV3100 was delivered i.v. on days 1 and 2 after cell inoculations (0.1 mL of a 20 μM solution per embryo). On day 5, portions of the CAM were harvested to quantify the number of human tumour cells by human-specific Alu-qPCR as previously described (Deryugina et al., Cancer Res 2005; 65: 10959-69), using a standard curve generated by serial dilutions of human tumour cells within a constant number (1×10^6) of chick embryo fibroblasts.

LNCaP tumour vasculature = experiment: Dorsal skin flap model, tumour vessel coverage; assay type: in vivo, Balb/c SCID mice
Description: A viewing chamber was attached to a raised skin flap on the dorsal surface of the mouse (Balb/c SCID) and a fragment (˜0.5 mm) of LNCaP tumour was placed on the microvascular as previously described (9). Tumour vasculature was imaged weekly/4 weeks using a stereomicroscope. Image analysis was carried out using Touptek software (Touptek Photonics, China).

LNCaP xenograft = LNCaP xenograft study, tumour growth
Description: MDV3100 (in 0.1% DMSO in corn oil) was administered orally (p.o). Vehicle control (VC) or MDV3100 (4 mg/kg, equivalent to 100 mg/day in men) was administered daily. Human IL-8 and VEGF nAbs were administered 3×/week via intraperitoneal (i.p.) injection, at a final concentration of 50 μg/ml and 100 μg/ml, respectively. IgG control was at a final concentration of 150 μg/ml.
LNCaP cells (1×10^7 in Matrigel) were implanted on the rear dorsum of 8-10-week-old male Balb/c SCID mice. When tumour volume was 150-200 mm^3, mice were randomly assigned to treatment groups (3-5 per group). […] Mice were sacrificed at day 28 or day 35. Tumour growth over 28 days (% T/C) was calculated using the equation: % T/C=(mean tumour volume on day 28−mean starting volume)/(mean control tumour volume on day 28−mean control starting volume)×100.
Tumours were measured 3×/week using digital calipers. The length and width of the tumour was measured and the volume calculated using the formula volume=(length×width 2)/2. *, numbers in brackets show % T/C compared to enzalutamide alone at day 28; **, control is enzalutamide alone.

LNCaP cells [4] = experiment: PARP immunoblot in LNCaP cells; assay type: cell-based, human; conditions: 10 μM, 72 h
Description: (§3) Immunoblotting was performed as previously described (McCourt et al., Clin Cancer Res 2012; 18:3822-33). Antibodies were obtained as follows: AR, Millipore (#PG-21, UK); AR-V7 (#ab198394) & PARP (#14-6667-82), Abcam (UK); Bcl-2 (#4223), Cell Signalling Technology (The Netherlands); c-FLIP (#AG-20B-0056), Adipogen (Switzerland); RELA(p65) (#sc-372), Santa Cruz (CA, USA); GAPDH (#MCA4740), Biorad (UK).

[5] = HUVEC cell viability (MTT assay); assay type: cell-based; conditions: human, HUVEC cells, read-out: reduction of viability of HUVEC cells
Description: as §2

hypoxic LNCaP cells [6] = experiment: ELISA of secreted VEGF and IL-8 from hypoxic LNCaP cells; assay type: cell-based, human; conditions: MDV3100 10 μM, relative to DMSO
Description: as §1
Secreted IL-8 (#M1918, Pelikine, Mast Group, UK), and VEGF (#DY293B, R&D Systems, UK) were measured by ELISA as per manufacturer's instructions.

HUVEC cells = experiment: HUVEC apoptosis (Annexin V/PI staining); assay type: cell-based, human; conditions: 10 μM, 72 h
Description: FIG. 1 illustrates that MDV3100 treatment directly affects tumour vasculature. (A) Graph illustrating measured intra-tumoural oxygenation levels in growing MDV3100-treated LNCaP tumours, in the absence and presence of anti-IL-8 nAb (50 μg/ml) and/or anti-VEGF nAb (100 μg/ml). Values shown are mean (±SD). (B) Bar graph presenting time-dependent changes in tumour vessel density over time in MDV3100-treated LNCaP tumours, in the absence or presence of anti-IL-8 nAb (50 μg/ml) and/or anti-VEGF nAb (100 μg/ml). Stereological methods were used to analyze change in vessel density over time in all treatment groups and values were used to calculate percentage area covered by vessels. […] Data shown are the mean (±SEM) of four individual experiments. […] Viability was determined by MTT assay. […] Apoptosis was assessed by Annexin V/PI staining. […] The number of junctions was measured using AngioSys 2.0 software. […] For all data, statistically significant differences were determined using a Student's two-tailed t-test or Mann-Whitney U test:* p<0.05, ** p<0.01, *** p<0.001.
To further understand the events contributing to MDV3100-promoted hypoxia, we studied the direct effect of MDV3100 administration upon vascular endothelial cells using two independent i assays. In agreement with previous studies, we detected AR mRNA in HUVEC endothelial cells by qPCR analysis (FIG. 1C, top panel). […]

C4-2B cells = experiment: C4-2B cell viability assay; assay type: cell-based; conditions: 72 h
Description: as §1, §2

PC3 cells [7] = experiment: PC3 cell viability assay; assay type: cell-based, human; conditions: increasing concentrations, 72 h, relative to DMSO vehicle control
Description: as §2

LNCaP tumours = experiment: Tumour oxygenation measurement in LNCaP xenograft model; assay type: in vivo, Balb/c SCID mice; conditions: MDV3100 4 mg/kg p.o. daily, nAbs i.p. 3x/week (anti-IL-8 50 μg/ml, anti-VEGF 100 μg/ml), over 28 days
Description: Tumour oxygenation was measured once weekly as previously described (Ming et al., Int J Cancer 2013; 132:1323-32).

LNCaP cells [8] = experiment: LNCaP cell viability (MTT assay), normoxia or hypoxia; assay type: cell-based, human; conditions: 10 μM, 72 h
Description: as §1, §2

LNCaP-EnzR cells [9] = experiment: Immunoblot of PARP, AR, c-FLIP and Bcl-2 in LNCaP-EnzR cells; assay type: cell-based, human; conditions: MDV3100 10 μM, 72 h
Description: as §3

[10] = system: endothelial cell tubule formation; experiment: In vitro angiogenesis (V2A vascular tubule formation) assay; assay type: cell-based; conditions: 10 days; for stimulation of endothelial cell tubule formation: VEGF 2 ng/ml or rh-IL-8 3 nM
Description: The V2A angiogenesis assay (#ZHA-4000, Cellworks, UK) was carried out according to the manufacturer's instruction. Cells were allowed to settle for 4 days prior to treatment. Treatments were carried out in duplicate and were replenished every 2 days for 10 days. For treatments involving conditioned media, PC3 or LNCaP cells were treated as required for 24 h, media harvested and stored at −20° C. Vessels were visualized at 4× magnification. Vessel density was measured in four fields per well using AngioSys 2.0 software (Cellworks, UK).

CNC(=O)c1ccc(N2C(=S)N(c3ccc(C#N)c(C(F)(F)F)c3)C(=O)C2(C)C)cc1F [MDV3100, Enzalutamide]
hypoxia-induced up-regulation of BCL2 (qPCR) (hypoxic LNCaP cells [1]): failed to reverse | hypoxia-induced up-regulation of CAIX (qPCR) (hypoxic LNCaP cells [1]): failed to reverse | hypoxia-induced expression of VEGF and IL-8 (qPCR) (hypoxic LNCaP cells [1]; relative to DMSO): failed to attenuate | viability of LNCaP-EnzR cells (LNCaP-EnzR cells [2]): no effect | PC3 colonization in the CAM assay (PC3 cells [3]): significantly enhanced PC3 colonization | vessel coverage (percentage area covered by tumour vessels) (LNCaP tumour vasculature; 14 days): 5.2±2.2% | vessel coverage (percentage area covered by tumour vessels) (LNCaP tumour vasculature; after 7 days of treatment): 8.2±2.3% | vessel coverage (percentage area covered by tumour vessels) (LNCaP tumour vasculature; day 21): 10.3±3.1% | vessel coverage (percentage area covered by tumour vessels) (LNCaP tumour vasculature; day 28): 14.7±2.6% | Tumour volume at day 28 (mm^3) (±SD) (LNCaP xenograft; day 28, MDV3100 4 mg/kg p.o. daily, antibodies i.p. 3x/week): 423 (±90) mm^3 | reduction in tumour volume / tumour growth (LNCaP xenograft; treatment-day 28, over 28 days): 59.5% | % T/C (LNCaP xenograft; tumour growth over 28 days versus vehicle control): 39.0% | full-length PARP protein (immunoblot) (LNCaP cells [4]; hypoxic LNCaP cells): stabilization of PARP | full-length PARP protein (immunoblot) (LNCaP cells [4]; normoxic LNCaP cells): loss of full-length PARP protein | cytotoxicity at 72 h, 10 μM ([5]; 10 μM): 10% | cytotoxicity at 72 h, 50 μM ([5]; 50 μM): 17% | hypoxia-induced secretion of VEGF and IL-8 (ELISA) (hypoxic LNCaP cells [6]): failed to attenuate | induction of apoptosis in HUVEC cells (HUVEC cells; hypoxia): significantly enhanced | induction of apoptosis in HUVEC cells (HUVEC cells; normoxic culture conditions): minimal | sensitivity of C4-2B cells (viability) (C4-2B cells; hypoxia, 10 μM): reduced sensitivity | sensitivity of C4-2B cells (viability) (C4-2B cells; normoxic culture conditions): intermediate sensitivity | viability of PC3 cells (PC3 cells [7]): unresponsive | intra-tumoural oxygen levels (LNCaP tumours): rapid, profound drop in tumour oxygen levels over the initial 14 days | viability of LNCaP cells (LNCaP cells [8]; hypoxic conditions): ineffective | viability of LNCaP cells (LNCaP cells [8]; normoxia, relative to DMSO control): reduced the viability | expression of full-length PARP (immunoblot) (LNCaP-EnzR cells [9]): clearly increased | tubule formation with conditioned medium from MDV3100-treated PC3 cells ([10]; CM of PC3 cells cultured with MDV3100 10 μM): no detrimental effect on tubule formation | development of branching junctions (vascular tubule formation) ([10]; MDV3100 10 μM): significantly impaired the development of branching junctions

VEGF
stimulation of endothelial cell tubule formation [10]: directly stimulated endothelial cell tubule formation

rh-IL-8: exogenous rh-IL-8 (3 nM) added in the tubule formation assay
stimulation of endothelial cell tubule formation [10]: less potent in stimulating tubule formation
